According to the NIST ThermoML archive (doi:10.1021/je100757w):
± gives the expanded uncertainty stated by the source.

Tests used:
[1] = xn = mol fraction of the nth substance listed; details: x2 = 0; for surface tension liquid-gas: Ring tensiometer; for mass density: 101.3 kPa, Liquid
[2] = for surface tension liquid-gas: Ring tensiometer; for mass density: 101.3 kPa, Liquid

Structure (SMILES)	surface tension liquid-gas ([1]; 298.15 K)	surface tension liquid-gas ([1]; 308.15 K)	mass density ([1]; 308.15 K)	surface tension liquid-gas ([1]; 318.15 K)	surface tension liquid-gas ([2]; 298.15 K)	mass density ([2]; 298.15 K)	surface tension liquid-gas ([2]; 308.15 K)	mass density ([2]; 308.15 K)	surface tension liquid-gas ([2]; 318.15 K)	mass density ([2]; 318.15 K)
O [water] + COCCOCCOCCOC	71.37 ± 1 mN/m	70.08 ± 1 mN/m	994.06 ± 0.27 kg/m3	69.11 ± 1 mN/m						
O [water] + COCCOCCOC	71.37 ± 1 mN/m	70.08 ± 1 mN/m	994.06 ± 0.27 kg/m3	69.11 ± 1 mN/m						
COCCOCCOC [2,5,8-trioxanonane]					24.56 ± 0.41 mN/m	940.01 ± 0.83 kg/m3	27.65 ± 0.45 mN/m	930.03 ± 0.86 kg/m3	23.44 ± 0.4 mN/m	919.99 ± 0.88 kg/m3
O [water] + COCCOCCOCCOCCOC	71.37 ± 1 mN/m	70.08 ± 1 mN/m	994.06 ± 0.27 kg/m3	69.11 ± 1 mN/m						
COCCOCCOCCOCCOC [2,5,8,11,14-pentaoxapentadecane]					33.74 ± 0.69 mN/m	1007.26 ± 2.1 kg/m3	32.45 ± 0.67 mN/m	997.98 ± 2.1 kg/m3	31.71 ± 0.65 mN/m	988.72 ± 2.1 kg/m3
COCCOCCOCCOC [2,5,8,11-tetraoxadodecane]					27.56 ± 0.48 mN/m	981.23 ± 1.1 kg/m3	28.48 ± 0.5 mN/m	971.71 ± 1.1 kg/m3	27.83 ± 0.49 mN/m	962.19 ± 1.1 kg/m3
